Experimental data as given in US20070292351A1, “Assay for efficacy of histone deacetylase inhibitors” (Methylgene, Inc., priority 2006, published 2007).

Assays:
[1] = tested on: human colon cancer HCT15 cells; assay: RT-PCR of MT3 transcription in HCT15 cells; format: cell-based; conditions: 16 hours, real-time RT-PCR normalized against beta-actin (FIG. 1)
Experimental: FIG. 1. […] HCT15 cells were treated with HDAC inhibitors or indicated compounds for 16 hours before total RNAs are isolated. RNA levels of MT3 were measured by real-time RT-PCR and are subsequently normalized against β-actin.
Colon cancer HCT15 cells were exposed to 1 μM MGCD0103 for various amounts of time, and MT3 RNA levels were monitored by conventional semi-quantitative RT-PCR. Maximal induction is achieved between 8 h and 24 h of exposure and maintained through 72 h.
RNA was extracted from 8×10^6 cells using the Qiagen RNeasy Mini kit (cat#74106, Qiagen, Missisauga Ont.) following the manufacturer's instructions. RT reaction was performed using the Expand Reverse Transcriptase kit from Roche (Cat#1 785 834 Roche Applied Biosciences, Laval, Que) with 1 μg total RNA together with 1 μl oligo(dT) primer (cat#y01212, Invitrogen-Canada, Burlington, Ont). cDNA was synthesized using an Eppendorf Mastercycler gradient PCR apparatus (Brinkmann Instruments Canada LTD., Mississauga, Ontario), using a two cycle protocol. For the 1st cycle reaction mixture (0.5 μl H2O, 4 μl of 5× Buffer, 2 μl DTT, 2 ul of 10 mM dNTPs, 0.5 μl RNAsin (cat#N211B, Promega, Fisher Scientific, Whitby, Ont.) and […] of the Expand Reverse Transcriptase (Cat#1785834, Roche, Laval, Quebec)) was incubated at 65° C. for 10 minutes and then set on ice. A second cycle was performed at 42° C. for 1 hour. The resulting cDNA products were kept at 4° C. until used.
One ul of the resulting cDNA was used for every amplification reaction with 18.9 ul H2O, 1.25 ul of 10 mM dNTPs, 0.5 ul of each primer pair, 2.5 ul of 10× Buffer. The PCR reaction was carried out in an Eppendorf Mastercycler gradient. The sequences of the primers used for the amplification of selected biomarkers, as well as the details of the PCR reaction cycles are featured below. All buffers came from Expand Long Template PCR system (Roche, Laval, Quebec, Cat#11681842001). All primers were synthesized by Invitrogen (Invitrogen-Canada, Burlington, Ont.)
Analysis of transcripts was performed using STORM 860 (Amersham Biosciences, Baie d'Urfe, Qubec). Transcription of genes was normalized to transcription of actin, which was performed in the same RT-PCR reaction. The relative expression level of gense was normalized to baseline signals.
Quantitative PCR with SYBR Green I detection with Mastercycler® ep realplex (Eppendorf) was performed using LightCycler® 480 SYBR Green I Master (Roche Diagnostics). SYBR Green I assays were performed with 600 nM primers. All other reaction conditions were as described by the manufacturer. Amplification conditions were 5 minutes of initial denaturation at 95° C., followed by 40 cycles of each 15 seconds at 95° C., 15 seconds at 63.4° C., 20 seconds at 68° C., a melting curve from 60° C. to 95° C. was recorded. Quantification was performed using Pfaffl method, a relative quantification method in real-time PCR (Nucleic Acids Research 2001 29:2002-2007). Primers were synthesized by Invitrogen (Invitrogen-Canada, Burlington, Ont.).

[2] = tested on: peripheral blast cells from AML patients; conditions: ex vivo treatment (Nebbioso et al. 2004); cited from earlier work

## Nc1ccccc1NC(=O)c1ccc(CNC(=O)OCc2cccnc2)cc1 [MS-275]
[1]
  Induction of transcription of MT3: induced
[2]
  level of pro-apoptotic TRAIL expression: increase

## O=C(CCCCCCC(=O)Nc1ccccc1)NO [SAHA]
[1]
  Induction of transcription of MT3: induced
